A short description of data set [1]: Antiviral activity against Influenza A virus (A/California/07/2009(H1N1) infected in MDCK cell line assessed as reduction of virus induced cytopathic effect by visual assay. In kind it is functional, cell-based.
Data set [2] is described as follows: Antiviral activity against Influenza A virus (A/California/07/2009(H1N1)) infected in MDCK cell line assessed as reduction of virus induced cytopathic effect by neutral red assay. In kind it is functional, cell-based.
A short description of data set [3]: Cytotoxicity against MDCK cells assessed as cell viability by visual assay. In kind it is cell-based, Canis lupus familiaris. The note with it: dog.
A short description of data set [4]: Cytotoxicity against MDCK cells assessed as cell viability by neutral red assay. In kind it is cell-based, Canis lupus familiaris. The note with it: dog.
Data set [5] in a line: Selectivity index, ratio of CC50 for MDCK cells by visual method to EC50 for Influenza A virus (A/California/07/2009(H1N1) virus by visual method. The note with it: dog, read-out: Ratio CC50/EC50. In kind it is toxicity, cell-based.
Data set [6] can be described thus: Selectivity index, ratio of CC50 for MDCK cells by neutral red method to EC50 for Influenza A virus (A/California/07/2009(H1N1) virus by neutral red method. In kind it is toxicity, cell-based. Particulars: dog, read-out: Ratio CC50/EC50.
In data set [7] the test system is Hepatitis C virus. The data set is described as follows: Antiviral activity against Hepatitis C virus 1b CON1 infected in human Huh/NeoET cells expressing luciferase assessed as reduction of virus induced cytopathic effect by luciferse reporter assay. In kind it is functional, cell-based, Hepacivirus hominis. The note with it: genotype 1b Con1, Huh/NeoET.
A short description of data set [8]: Cytotoxicity against human Huh/NeoET cells assessed as cell viability by cytoTox1 cell proliferation assay. In kind it is cell-based.
Data set [9] can be described thus: Selectivity index, ratio of CC50 for luciferase expressing Huh/NeoET cells to EC50 for Hepatitis C virus 1b CON1. In kind it is toxicity, cell-based. The note with it: human, read-out: Ratio CC50/EC50.
In data set [10] the test system is Hepatitis C virus. In words: Antiviral activity against HCV 1b/2a (Con-1/JFH-1) infected in human Huh7.5 cells assessed as reduction of virus induced cytopathic effect by luciferase reporter assay. The note with it: Huh-7. In kind it is functional, organism-based, Hepacivirus hominis.
The test system of data set [11] is Hepatitis C virus. The data set is described as follows: Antiviral activity against HCV 2a/2a (J6/JFH1) infected in human Huh7.5 cells assessed as reduction of virus induced cytopathic effect by luciferase reporter assay. The note with it: Huh-7. In kind it is functional, organism-based, Hepacivirus hominis.
Data set [12] concerns Hepatitis C virus. In words: Antiviral activity against HCV 2a (JFH1) infected in human Huh7 cells assessed as reduction of virus induced cytopathic effect by luciferase reporter assay. In kind it is functional, organism-based, Hepacivirus hominis. Particulars: Huh-7.
The test system of data set [13] is Hepatitis C virus. In words: Antiviral activity against HCV 1a/2a (H77/JFH1) infected in human Huh7.5 cells assessed as reduction of virus induced cytopathic effect by luciferase reporter assay. In kind it is functional, organism-based, Hepacivirus hominis. Particulars: Huh-7.
Data set [14] concerns Hepatitis C virus. The data set is described as follows: Antiviral activity against HCV 1b Con1 infected in human Huh7.5 cells assessed as reduction of virus induced cytopathic effect by qRT-PCR. In kind it is functional, cell-based, Hepacivirus hominis. Particulars: genotype 1b Con1, Huh-7.
In data set [15] the test system is Hepatitis C virus. The data set is described as follows: Antiviral activity against HCV 1a H77 infected in human Huh7.5 cells assessed as reduction of virus induced cytopathic effect by qRT-PCR. In kind it is functional, cell-based, Hepacivirus hominis. The note with it: genotype 1a H77, Huh-7.
Data set [16] is described as follows: Cytotoxicity against human HuH7 cells assessed as cell viability by cytoTox1 cell proliferation assay. In kind it is cell-based, Huh-7.
A short description of data set [17]: Cytotoxicity against human Huh7.5 cells assessed as cell viability by cytoTox1 cell proliferation assay. In kind it is cell-based, Huh-7.5.
Data set [18] in a line: Selectivity index, ratio of CC50 for human HuH7.5 cells to EC50 for HCV 1b/2a (Con-1/JFH-1). Also noted: species or system Huh-7.
Data set [19] in a line: Selectivity index, ratio of CC50 for human HuH7.5 cells to EC50 for HCV 2a/2a (J6/JFH1). Also noted: species or system Huh-7.
Data set [20] is described as follows: Selectivity index, ratio of CC50 for human HuH7 cells to EC50 for HCV 2a (JFH1). Also noted: species or system Huh-7.
Data set [21] is described as follows: Selectivity index, ratio of CC50 for human HuH7 cells to EC50 for HCV 1a/2a (H77/JFH1). Set-up: species or system Huh-7.
Data set [22] in a line: Selectivity index, ratio of CC50 for human HuH7 cells to EC50 for Hepatitis C virus 1b CON1. In kind it is toxicity, cell-based, Huh-7. Particulars: read-out: Ratio CC50/EC50.
Data set [23] can be described thus: Selectivity index, ratio of CC50 for human HuH7 cells to EC50 for Hepatitis C virus 1a H77. In kind it is toxicity, cell-based, Huh-7. Particulars: read-out: Ratio CC50/EC50.

Converted amounts (≈) assume the structure as drawn.

As to `Cc1c(-c2csc(/N=C3/S/C(=C4/SCC(=O)N4c4ccccc4)C(=O)N3c3ccccc3)n2)c(=O)n(-c2ccccc2)n1C`, the half-maximal effective concentration (EC50) in data set [1] was 23 µg/mL (≈ 36.1 µM); in data set [2], 23 µg/mL (≈ 36.1 µM); with Hepatitis C virus [7] it was 12.7 µM. For the same compound, the cytotoxic concentration (CC50) in data set [3] was greater than 100 µg/mL; in data set [4], greater than 100 µg/mL; in data set [8], greater than 20 µM. In addition, the selectivity ratio is greater than 4.2 in [5], greater than 4.3 in [6] and greater than 2 in [9]. For the same compound, in the data set with Hepatitis C virus [7], the concentration for an effect of 90% (EC90) was greater than 20 µM.
For the compound `CC(=O)C1=NN(c2ccccc2)/C(=C2\S/C(=N/c3nc(-c4c(C)n(C)n(-c5ccccc5)c4=O)cs3)N(c3ccccc3)C2=O)S1`, the 50% effective concentration (EC50) in the data set on Hepatitis C virus [7] turned out to be 0.56 µM; in the data set with Hepatitis C virus [10], 1.09 µM; in the data set with Hepatitis C virus [11], 1.54 µM; in the data set on Hepatitis C virus [12], 17.7 µM; in the data set on Hepatitis C virus [13], 13.6 µM; with Hepatitis C virus [14], 0.46 µM. Moreover, in the data set on Hepatitis C virus [15], the concentration for a half-maximal effect (EC50) was greater than 20 µM. Further, the EC90 with Hepatitis C virus [7] was 1.81 µM; with Hepatitis C virus [10], greater than 20 µM; with Hepatitis C virus [11], greater than 20 µM; with Hepatitis C virus [12], greater than 20 µM; with Hepatitis C virus [13], greater than 20 µM; in the data set on Hepatitis C virus [14], greater than 20 µM. Besides, the EC90 with Hepatitis C virus [15] was greater than 20 µM. In addition, the CC50 in [8], in data set [16] and in data set [17] was greater than 20 µM in each case. In addition, the selectivity ratio in [9] is greater than 36; in data set [22] it was greater than 43; in data set [23], 1. For the same compound, the “Ratio CC50/EC50” value is recorded as greater than 18 in [18], greater than 13 in data set [19], greater than 1 in data set [20] and greater than 1 in [21].
In the case of `CC(=O)C1=NN(c2ccc(C)cc2)/C(=C2\S/C(=N/c3nc(-c4c(C)n(C)n(-c5ccccc5)c4=O)cs3)N(c3ccccc3)C2=O)S1`, in the data set with Hepatitis C virus [7], the EC50 was 1.04 µM and the EC90 stood at 4.76 µM. The 50% cytotoxic concentration (CC50) in data set [8] was greater than 20 µM. Further, the selectivity ratio in data set [9] is greater than 19.
For `COc1ccc(N2N=C(C(C)=O)S/C2=C2/S/C(=N/c3nc(-c4c(C)n(C)n(-c5ccccc5)c4=O)cs3)N(c3ccccc3)C2=O)cc1` the same measures were 2.8 µM, 15.5 µM, greater than 20 µM and greater than 7.
On to `NC(=O)c1ncn([C@@H]2O[C@H](CO)[C@@H](O)[C@H]2O)n1` [RIBAVIRIN], for which the figures for the EC50 in data set [1] and in data set [2] were 24 µg/mL (≈ 98.3 µM) and 16 µg/mL (≈ 65.5 µM), respectively. The CC50 in data set [3] and in data set [4] was greater than 320 µg/mL throughout. Further, the selectivity ratio is greater than 32 in [5] and greater than 2 in [6].
Turning to `CC(=O)C1=NN(c2ccc(Cl)cc2)/C(=C2\S/C(=N/c3nc(-c4c(C)n(C)n(-c5ccccc5)c4=O)cs3)N(c3ccccc3)C2=O)S1`, in the data set on Hepatitis C virus [7], the EC50 is 1.12 µM and the EC90 was 14.4 µM. For the same compound, the CC50 in data set [8] is greater than 20 µM. In data set [9], the selectivity ratio was greater than 18.
Consider `CCOC(=O)C1=C(C)N(c2ccccc2)/C(=C2\S/C(=N/c3nc(-c4c(C)n(C)n(-c5ccccc5)c4=O)cs3)N(c3ccccc3)C2=O)S1`, for which the half-maximal effective concentration (EC50) in data set [1] turned out to be 68 µg/mL (≈ 96.2 µM); in data set [2] it was 92 µg/mL (≈ 130 µM). Moreover, the 50% cytotoxic concentration (CC50) in data set [3] and in data set [4] was greater than 100 µg/mL each time. The selectivity ratio was greater than 1.5 in [5] and greater than 1.1 in data set [6].

These data come from ChEMBL document CHEMBL3616454, “Synthesis and antiviral activity of some new bis-1,3-thiazole derivatives” (Eur J Med Chem, 2015).
